Laboratory results from publication PMC4204381 (Computational and Structural Biotechnology Journal, 2014).
Where two headings read alike, the source gives them in different places.

What was measured:
Male Sprague–Dawley rats [1] = assay type: in vivo, rat; conditions: p < 0.05; for Oleoylcarnitine blood level vs control: Fig. 4A; for Palmitoylcarnitine blood level vs control: Fig. 4B; for LysoPC(20:1) blood level vs control: Fig. 4C
patients = conditions: cited from earlier work
Male Sprague–Dawley rats [2] = assay: Histopathology and tissue observations in rats after a single oral dose; conditions: for hepatic vacuolization / hepatic necrosis: low and high doses, 6 or 24 h
Male Sprague–Dawley rats [3] = assay: Clinical chemistry; conditions: for clinical chemistry changes (ALT, AST, ALP): low dose, 6 or 24 h

Row | Compound | Oleoylcarnitine blood level vs control (Male Sprague–Dawley rats [1]; 6 h) | Palmitoylcarnitine blood level vs control (Male Sprague–Dawley rats [1]; 6 h) | LysoPC(20:1) blood level vs control (Male Sprague–Dawley rats [1]; 6 h) | Palmitoylcarnitine blood level vs control (Male Sprague–Dawley rats [1]; 24 h) | LysoPC(20:1) blood level vs control (Male Sprague–Dawley rats [1]; 24 h) | hepatic vacuolization / hepatic necrosis (Male Sprague–Dawley rats [2]) | clinical chemistry changes (ALT, AST, ALP) (Male Sprague–Dawley rats [3]) | also measured
1 | NC(=O)OCC(COC(N)=O)c1ccccc1 [FEL, felbamate] |  |  | significantly decreased | appeared to be increased | significantly decreased | neither hepatic vacuolization nor hepatic necrosis | did not have any clinical chemistry changes | 
2 | CN(C)C(=N)N=C(N)N [MET, metformin] | significantly increased |  |  |  |  | neither hepatic vacuolization nor hepatic necrosis | did not have any clinical chemistry changes | cases of liver injury reported to be associated with MET (patients; by 2012, concomitant intake of other potential hepatotoxicants): < 10 cases; Taurocholic acid blood level vs control (Male Sprague–Dawley rats [1]; 6 h, Fig. 4D): significantly decreased; ALT increase of ALT value in control group (Male Sprague–Dawley rats [3]; 6 h, high dose): < 3 fold
3 | Nc1c2c(nc3ccccc13)CCCC2 [tacrine] |  |  |  |  |  |  |  | ALT increase with no liver cell injury (patients; human, in vivo): > 20 fold of the upper limit of normal

Continued, in another order:

Row | Oleoylcarnitine blood level vs control (Male Sprague–Dawley rats [1]; 6 h) | Palmitoylcarnitine blood level vs control (Male Sprague–Dawley rats [1]; 6 h) | LysoPC(20:1) blood level vs control (Male Sprague–Dawley rats [1]; 6 h) | Palmitoylcarnitine blood level vs control (Male Sprague–Dawley rats [1]; 24 h) | LysoPC(20:1) blood level vs control (Male Sprague–Dawley rats [1]; 24 h) | Compound | hepatic vacuolization / hepatic necrosis (Male Sprague–Dawley rats [2]) | clinical chemistry changes (ALT, AST, ALP) (Male Sprague–Dawley rats [3]) | also measured
4 | significantly increased | significantly increased | significantly decreased | appeared to be increased | appeared to be decreased | CC(=O)Nc1ccc(O)cc1 [APAP, acetaminophen] |  |  | Oleoylcarnitine blood level vs control (Male Sprague–Dawley rats [1]; 24 h): significantly increased
5 |  | significantly increased |  |  | significantly decreased | O=C1CN(/N=C/c2ccc(-c3ccc([N+](=O)[O-])cc3)o2)C(O)=N1 [DAN, dantrolene] | neither hepatic vacuolization nor hepatic necrosis |  | incidence of hepatotoxicity (patients; patients): 0.35%
6 |  | significantly increased |  |  | appeared to be decreased | Cc1cnc(NC(=O)C2=C(O)c3ccccc3S(=O)(=O)N2C)s1 [MEL, meloxicam] | neither hepatic vacuolization nor hepatic necrosis |  | inflammation in the capsule of kidney (incidence) (Male Sprague–Dawley rats [2]; rats treated with MEL for 24 h): 1 out of 5; inflammation in the capsule of liver (incidence) (Male Sprague–Dawley rats [2]; rats treated with MEL for 24 h): 2 out of 5; ALT increase of the ALT value of the control group (Male Sprague–Dawley rats [3]; 24 h, high dose group): < 2 fold
